Values of other authors, collected in US6958144B2, “Methods of whitening teeth” (Britesmile Development, Inc., priority 1995, dated 2005).

Settings: 10% carbamide peroxide solution, background statement

equilibrium pH: approximately 3.45
SMILES: NC(N)=O.OO [carbamide peroxide]
